This is an account of results in publication PMC8385535 (Frontiers in Pharmacology, 2021).

The target of the assay is T1, IGPD (imidazole glycerol phosphate dehydratase) (Staphylococcus xylosus, UniProt A0A5R9B0J7).
T1 construct: gene hisB; recombinant, pET30a-hisB, E. coli host; His tag implied (coupled to Octet NTA sensor)
T1 sequence (A0A5R9B0J7 1-192): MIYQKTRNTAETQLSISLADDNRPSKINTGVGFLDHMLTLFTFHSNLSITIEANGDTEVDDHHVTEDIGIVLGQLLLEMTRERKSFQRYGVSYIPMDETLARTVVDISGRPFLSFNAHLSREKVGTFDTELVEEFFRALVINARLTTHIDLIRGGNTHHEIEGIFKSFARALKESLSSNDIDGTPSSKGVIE
As to the kind of experiment: bio-layer interferometry (Octet, IGPD on NTA tip). Format: binding.

For the molecule `C[C@@H]1O[C@@H](OC[C@H]2O[C@@H](Oc3c(-c4ccc(O)c(O)c4)oc4cc(O)cc(O)c4c3=O)[C@H](O)[C@@H](O)[C@@H]2O)[C@H](O)[C@H](O)[C@H]1O` [rutin], the Kd was determined as 1 mM.
